The results in this text go back to US20050233985A1, “Rsk inhibitors and therapeutic uses thereof” (priority 2003, published 2005).

Assay [1] concerns the target T1, Focal Adhesion Kinase (FAK) (Homo sapiens, UniProt Q05397).
T1 construct: the catalytic domain of the tyrosine kinase, Focal Adhesion Kinase (FAK); His; made in house; host or cells: Sf9 (baculovirus, Bac-to-Bac)
Nature of the assay: FAK tyrosine kinase ELISA. In kind it is biochemical. Conditions: purified compounds. (ELISA stands for enzyme-linked immunosorbent assay.)

The next assay deals with T2, Msk1 (Homo sapiens, UniProt O75582).
T2 construct: purchased Upstate Biotechnology
T2 sequence (O75582 whole entry, species assumed): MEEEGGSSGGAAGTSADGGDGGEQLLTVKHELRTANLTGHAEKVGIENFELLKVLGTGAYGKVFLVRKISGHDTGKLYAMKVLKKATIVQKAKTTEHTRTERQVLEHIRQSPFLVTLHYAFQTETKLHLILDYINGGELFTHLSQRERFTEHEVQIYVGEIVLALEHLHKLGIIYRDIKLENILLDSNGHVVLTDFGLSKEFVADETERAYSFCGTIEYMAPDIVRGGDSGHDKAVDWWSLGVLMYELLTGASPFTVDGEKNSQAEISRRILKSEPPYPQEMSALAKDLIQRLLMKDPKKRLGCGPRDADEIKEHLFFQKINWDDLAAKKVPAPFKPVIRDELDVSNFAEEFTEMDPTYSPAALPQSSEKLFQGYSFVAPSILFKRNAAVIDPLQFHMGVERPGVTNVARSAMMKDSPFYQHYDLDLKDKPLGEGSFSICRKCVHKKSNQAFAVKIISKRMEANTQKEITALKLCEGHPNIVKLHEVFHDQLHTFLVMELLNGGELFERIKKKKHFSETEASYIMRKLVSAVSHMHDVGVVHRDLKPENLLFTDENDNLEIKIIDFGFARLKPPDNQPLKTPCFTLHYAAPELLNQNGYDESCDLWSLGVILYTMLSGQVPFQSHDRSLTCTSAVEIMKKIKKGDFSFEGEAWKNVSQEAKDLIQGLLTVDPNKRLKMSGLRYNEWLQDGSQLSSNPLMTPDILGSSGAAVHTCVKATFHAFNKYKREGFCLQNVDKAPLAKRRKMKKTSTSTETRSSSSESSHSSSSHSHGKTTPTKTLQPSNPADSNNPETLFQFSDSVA
Nature of the assay: Msk1 kinase ELISA. In kind it is biochemical. The following applies: purified compounds. The protocol: Kinase Assays. Glutathione-S-transferase (GST)-fusion protein (1 g) containing the sequence -[…] (SEQ ID NO: 3, for serine/threonine kinase assays) or -[…] (SEQ ID NO: 4, for tyrosine kinase assays) was adsorbed in the wells of LumiNunc 96-well polystyrene plates (MaxiSorp surface treatment). The wells were blocked with sterile 3% tryptone in phosphate buffered saline and stored at 4° C. for up to 6 months. Kinase (5 nM) in 70 μl of kinase buffer (5 mM -glycerophosphate pH 7.4, 25 mM HEPES pH 7.4, 1.5 mM DTT, 30 mM MgCl2, 0.15 M NaCl) was dispensed into each well. Compound at indicated concentrations or vehicle was added, and reactions were initiated by the addition of 30 μl of ATP for a final ATP concentration of 10 μM unless indicated otherwise. Reactions were terminated after 10 to 45 min by addition of 75 μl of 500 mM EDTA, pH 7.5. All assays measured the initial velocity of reaction. After extensive washing of wells, polyclonal phosphospecific antibody developed against the phosphopeptide and HRP-conjugated anti-rabbit antibody (211-035-109, Jackson ImmunoResearch Laboratories) were used to detect serine phosphorylation of the substrate. HRP-conjugated anti-phospho-tyrosine antibody (RC20, BD Transduction Laboratories) was used for phospho-tyrosine detection. His-tagged active Rsk and FAK were expressed in Sf9 cells and purified using NiNTA resin (Qiagen). Baculovirus was prepared using the Bac-to-Bac® baculovirus expression system (Invitrogen). PKA was bacterially expressed and activated as described (Anal. Biochem. 245, 115-122 (1997)). Active Msk1 and p70 S6 kinase was purchased from Upstate Biotechnology. Immunoprecipitation and kinase assays were performed as previously described (Poteet-Smith et al., J. Biol. Chem, 274, 22135-22138 (1999) using the immobilized GST-fusion proteins and ELISAs as above.

The target in another assay is Rsk2 (Homo sapiens, UniProt P51812). Nature of the assay: Kinase assay of immunoprecipitated HA-tagged Rsk2 from EGF-stimulated BHK21 cells. Conditions: 2 μM. In kind it is biochemical.
Sequence of Rsk2 (P51812 whole entry): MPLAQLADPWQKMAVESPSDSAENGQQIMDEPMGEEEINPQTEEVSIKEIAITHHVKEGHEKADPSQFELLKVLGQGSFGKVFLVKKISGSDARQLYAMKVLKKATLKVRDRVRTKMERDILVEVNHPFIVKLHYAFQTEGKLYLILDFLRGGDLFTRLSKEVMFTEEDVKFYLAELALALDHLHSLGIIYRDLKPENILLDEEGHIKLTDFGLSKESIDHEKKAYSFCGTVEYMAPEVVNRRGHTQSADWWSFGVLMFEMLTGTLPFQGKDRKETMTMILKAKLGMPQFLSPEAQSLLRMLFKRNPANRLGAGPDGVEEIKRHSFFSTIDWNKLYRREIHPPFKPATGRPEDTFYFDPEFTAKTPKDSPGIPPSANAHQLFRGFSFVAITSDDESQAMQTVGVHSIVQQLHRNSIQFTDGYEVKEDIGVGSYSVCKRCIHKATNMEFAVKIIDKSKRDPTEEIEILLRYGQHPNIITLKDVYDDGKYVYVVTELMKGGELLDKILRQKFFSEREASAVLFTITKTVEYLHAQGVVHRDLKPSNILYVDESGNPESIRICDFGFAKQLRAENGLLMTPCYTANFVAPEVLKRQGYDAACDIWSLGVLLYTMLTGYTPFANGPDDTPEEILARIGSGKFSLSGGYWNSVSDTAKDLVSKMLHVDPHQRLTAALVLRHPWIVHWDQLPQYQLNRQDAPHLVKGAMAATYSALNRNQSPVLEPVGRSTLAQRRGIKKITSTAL
The target in another assay is T3, Rsk2(1-389) (Homo sapiens, UniProt P51812).
T3 construct: a truncation mutant of Rsk2 containing only the NTKD (Rsk2(1-389)); expressed in transfected cells; host or cells: BHK21, EGF-stimulated; anti-HA immunoprecipitate
T3 sequence (P51812 1-389): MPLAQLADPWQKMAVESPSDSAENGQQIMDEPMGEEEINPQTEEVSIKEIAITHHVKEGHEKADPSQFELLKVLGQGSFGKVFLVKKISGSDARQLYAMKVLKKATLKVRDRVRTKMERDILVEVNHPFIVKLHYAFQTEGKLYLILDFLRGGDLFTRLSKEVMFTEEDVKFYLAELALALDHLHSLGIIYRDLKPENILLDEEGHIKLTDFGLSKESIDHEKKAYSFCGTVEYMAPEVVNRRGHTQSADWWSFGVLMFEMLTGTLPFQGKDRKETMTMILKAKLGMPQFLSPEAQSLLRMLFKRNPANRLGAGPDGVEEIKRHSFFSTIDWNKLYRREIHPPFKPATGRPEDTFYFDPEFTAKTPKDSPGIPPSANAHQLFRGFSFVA
Nature of the assay: Kinase assay of immunoprecipitated HA-tagged Rsk2 amino-terminal kinase domain. In kind it is biochemical. Conditions: 2 μM.

The subject of assay [2] is p140 phosphorylation in MCF-7 cells. Nature of the assay: PDB-induced p140 phosphorylation in MCF-7 cells (immunoblot). In kind it is cell-based, human. Conditions: 100 μM, 3 hr pre-incubation, 500 nM PDB 30 min. The protocol: (§1) Cells were treated with 500 nM PDB for 30 min prior to lysis. Protein concentration of lysates was measured and lysates were electrophoresed, transferred and immunoblotted.
(§2) Cell Culture. For proliferation studies cells were seeded at 2500 to 5000 cells per well in 96 well tissue culture plates in the appropriate medium as described by American Type Culture Collection. After 24 hr, the medium was replaced with medium containing compound or vehicle as indicated. Cell viability was measured at indicated time points using CellTiter-Glo™ assay reagent (Promega) according to manufacturer's protocol. For in vivo inhibition studies, cells were seeded at 2.5×10^5 cells/well in 12 well cell culture clusters. After 24 hr, the cells were serum starved for 24 hr then incubated with compound or vehicle for 3 hr prior to a 30 min PDB stimulation. Cells were lysed as previously described (J. Biol. Chem. 273, 13317-13323 (1998)). The lysates were normalized for total protein, electrophoresed and immunoblotted. For cell imaging, Ha-Ras-transformed NIH/3T3 cells were seeded on LABTEK II chamber slides (Nalge) at a density of 1×10^4 cells/well. After 24 hr, fresh medium was added the indicated compounds or vehicle. Images were taken 48 hr after treatment at a magnification of 20×.

For assay [3], the system named is p140 phosphorylation in MCF-10A cells. Nature of the assay: PDB-induced p140 phosphorylation in MCF-10A cells (immunoblot). In kind it is cell-based. The following applies: 3 hr pre-incubation, 500 nM PDB 30 min. The protocol: as §1, §2
(A western blot detects proteins with antibodies after separation by electrophoresis.)

Assay [4] has as its system p140 phosphorylation in LNCaP cells. Briefly: p140 phosphorylation in LNCaP line (anti-RPM antibody). Conditions: efficacy paralleled inhibition of LNCaP proliferation. In kind it is cell-based, human. Here is the method: The ability of SL1011-1 to inhibit the proliferation of the androgen-dependent human prostate line, LNCaP was tested. […] To investigate the Rsk signal transduction pathway in the LNCaP line, a phosphospecific antibody to a Rsk phosphorylation motif (RPM) was produced. Only a few downstream effectors of Rsk have been identified and therefore, applicants anticipated that an anti-RPM antibody would be a very effective tool for identifying novel Rsk substrates in vivo. An anti-RPM antibody has previously been reported that recognizes the Rsk substrate, p140, a protein of unknown function. […] All lysates were normalized to each other using an anti-Ran antibody. Ran is used for normalization based on the observations that it is a general housekeeping protein, the activity or expression levels of which are not known to vary in any disease state.

“Also recorded” adds a separate entry of the source.

T1 sequence (Q05397 422-680 limits assumed, species assumed): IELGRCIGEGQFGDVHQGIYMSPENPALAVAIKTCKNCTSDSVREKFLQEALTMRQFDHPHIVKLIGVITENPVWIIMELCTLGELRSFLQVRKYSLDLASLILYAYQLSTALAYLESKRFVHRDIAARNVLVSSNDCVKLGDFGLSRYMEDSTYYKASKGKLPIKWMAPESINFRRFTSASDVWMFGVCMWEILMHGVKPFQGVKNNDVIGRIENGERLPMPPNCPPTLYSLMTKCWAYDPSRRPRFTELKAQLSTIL

On to `CC(=O)OC1C(C)OC(Oc2c(-c3ccc(O)cc3)oc3cc(O)cc(O)c3c2=O)C(O)C1OC(C)=O` [SL0101-1, kaempferol 3-α-L-(3″,4″-diacetyl) rhamnopyranoside], for which the “inhibition of FAK” value in assay [1] is given as “do not inhibit”. In addition, the “inhibition of MSK” value against Msk1 is “do not inhibit”. The Rsk2 activity result at Rsk2 is “potently reduced”. Besides, the “inhibition of isolated Rsk2 NTKD” value against Rsk2(1-389) was “potently inhibited; also recorded: inhibits activity”. For the same compound, the “PDB-induced p140 phosphorylation” value in assay [2] is listed as “abrogates”. Further, in assay [3], the “PDB-induced p140 phosphorylation in MCF-10A cells” value is on record as “prevented”. Also, the “phosphorylation of p140” value in assay [4] was “decrease the phosphorylation”.
